According to US7173004B2, “Macrocyclic isoquinoline peptide inhibitors of hepatitis C virus” (Bristol-Myers Squibb Company, priority 2003, dated 2007):
Where a name gives a salt, the structure may show the parent alone.

Molecular target: T1, HCV NS3/4A protease complex, BMS strain (genotype 1a) (UniProt P27958, C1454S/C1711G, species not given/STRAIN_BMS)
T1 construct: b1001: DNA encoding the recombinant HCV NS3/4A protease complex (amino acids 1027 to 1711) ... a three-lysine solubilizing tail was added at the 3′-end of the NS4A coding region; fused on or other part: Three-lysine solubilising tail at the C-terminus of NS4A; A His tag is implied by the pET21b vector and Ni-NTA purification
Experiment: Recombinant HCV NS3/4A protease complex FRET peptide assay, BMS strain
Format: biochemical
Description: Recombinant HCV NS3/4A Protease Complex FRET Peptide Assay
The purpose of this in vitro assay was to measure the inhibition of HCV NS3 protease complexes, derived from the BMS strain, H77C strain or J416S strain, as described below, by compounds of the present invention. This assay provides an indication of how effective compounds of the present invention would be in inhibiting HCV proteolytic activity.
Serum from an HCV-infected patient was obtained from Dr. T. Wright, San Francisco Hospital. An engineered full-length cDNA (compliment deoxyribonucleic acid) template of the HCV genome (BMS strain) was constructed from DNA fragments obtained by reverse transcription-PCR (RT-PCR) of serum RNA (ribonucleic acid) and using primers selected on the basis of homology between other genotype 1a strains. From the determination of the entire genome sequence, a genotype 1a was assigned to the HCV isolate according to the classification of Simmonds et al. (See P Simmonds, K A Rose, S Graham, S W Chan, F McOmish, B C Dow, E A Follett, P L Yap and H Marsden, J. Clin. Microbiol., 31(6), 1493–1503 (1993)). […] The infectious clones, H77C (1a genotype) and J4L6S (1b genotype) were obtained from R. Purcell (NIH) and the sequences are published in Genbank (AAB67036, see Yanagi, M., Purcell, R. H., Emerson, S. U. and Bukh, J. Proc. Natl. Acad. Sci. U.S.A. 94(16), 8738–8743 (1997); AF054247, see Yanagi, M., St Claire, M., Shapiro, M., Emerson, S. U., Purcell, R. H. and Bukh, J, Virology 244 (1), 161–172. (1998)).
The H77C and J4L6S strains were used for production of recombinant NS3/4A protease complexes. DNA encoding the recombinant HCV NS3/4A protease complex (amino acids 1027 to 1711) for these strains were manipulated as described by P. Gallinari et al. (see Gallinari P, Paolini C, Brennan D, Nardi C, Steinkuhler C, De Francesco R. Biochemistry. 38(17):5620–32, (1999)). Briefly, a three-lysine solubilizing tail was added at the 3′-end of the NS4A coding region. The cysteine in the P1 position of the NS4A-NS4B cleavage site (amino acid 1711) was changed to a glycine to avoid the proteolytic cleavage of the lysine tag. Furthermore, a cysteine to serine mutation was introduced by PCR at amino acid position 1454 to prevent the autolytic cleavage in the NS3 helicase domain. The variant DNA fragment was cloned in the pET21b bacterial expression vector (Novagen) and the NS3/4A complex was expressed in Escherichia coli strain BL21 (DE3) (Invitrogen) following the protocol described by P. Gallinari et al. (see Gallinari P, Brennan D, Nardi C, Brunetti M, Tomei L, Steinkuhler C, De Francesco R., J. Virol. 72(8):6758–69 (1998)) with modifications. Briefly, NS3/4A expression was induced with 0.5 mM Isopropyl β-D-1-thiogalactopyranoside (IPTG) for 22 hr at 20° C. A typical fermentation (10 L) yielded approximately 80 g of wet cell paste. The cells were resuspended in lysis buffer (10 mL/g) consisting of 25 mM N-(2-Hydroxyethyl)piperazine-N′-(2-Ethane Sulfonic acid) (HEPES), pH7.5, 20% glycerol, 500 mM Sodium Chloride (NaCl), 0.5% Triton-X100, 1 microgram/milliliter (“μg/mL”) lysozyme, 5 mM Magnesium Chloride (MgCl2), 1 ug/ml DnaseI, 5 mM β-Mercaptoethanol (βME), Protease inhibitor—Ethylenediamine Tetraacetic acid (EDTA) free (Roche), homogenized and incubated for 20 mins at 4° C. The homogenate was sonicated and clarified by ultra-centrifugation at 235000 g for 1 hr at 4° C. Imidazole was added to the supernatant to a final concentration of 15 mM and the pH adjusted to 8.0. The crude protein extract was loaded on a Nickel-Nitrilotriacetic acid (Ni-NTA) column pre-equilibrated with buffer B (25 mM HEPES, pH8.0, 20% glycerol, 500 mM NaCl, 0.5% Triton-X100, 15 mM imidazole, 5 mM βME). The sample was loaded at a flow rate of 1 mL/min. The column was washed with 15 column volumes of buffer C (same as buffer B except with 0.2% Triton-X100). The protein was eluted with 5 column volumes of buffer D (same as buffer C except with 200 mM Imidazole). […]

[1] = NS3/4A BMS Strain, activity range classes
[2] = NS3/4A BMS strain, activity range symbols

| Compound | IC50 [1] [nM] | IC50 [2] [nM] |
| --- | --- | --- |
| COc1ccc2c(O[C@@H]3C[C@H]4C(=O)N[C@]5(C(=O)O)C[C@H]5/C=C\CCCSC(C)(C)[C@H](NC(=O)OC(C)(C)C)C(=O)N4C3)nccc2c1 [Compound 79, (1S,4R,6S,14R,18R)-7-cis-14-tert-Butoxycarbonylamino-13,13-dimethyl-18-(6-methoxy-isoquinolin-1-yloxy)-2,15-dioxo-12-thia-3,16-diazatricyclo[14.3.0.0^4,6]nonadec-7-ene-4-carboxylic acid] | 5000 to 50000 | – |
| CCC1(S(=O)(=O)NC(=O)C23CC2C=CCCCSCC(NC(=O)OCC(C)(C)C)C(=O)N2CC(Oc4nccc5cc(OC)ccc45)CC2C(=O)N3)CC1 (stereo not shown) [Compound 45] | – | < 50 |
| CCC1(S(=O)(=O)NC(=O)C23CC2C=CCCCSCC(NC(=O)NC2CCCC2)C(=O)N2CC(Oc4nccc5cc(OC)ccc45)CC2C(=O)N3)CC1 (stereo not shown) [Compound 46] | – | < 50 |
| COc1ccc2c(OC3CC4C(=O)NC5(C(=O)NS(=O)(=O)C6(C)CC6)CC5C=CCCCOC(C)C(NC(=O)OC(C)(C)C)C(=O)N4C3)nccc2c1 (stereo not shown) [Compound 66] | – | < 50 |
| CCC1(S(=O)(=O)NC(=O)C23CC2C=CCCCOC(C)C(NC(=O)OC(C)(C)C)C(=O)N2CC(Oc4nccc5cc(OC)ccc45)CC2C(=O)N3)CC1 (stereo not shown) [Compound 70] | – | < 50 |
| CCC1(S(=O)(=O)NC(=O)C23CC2C=CCCCSCC(NC(=O)OC(C)C)C(=O)N2CC(Oc4nccc5cc(OC)ccc45)CC2C(=O)N3)CC1 (stereo not shown) [Compound 44] | – | < 50 |
| O=C(N[C@H]1CCCCC/C=C\[C@@H]2C[C@@]2(C(=O)NS(=O)(=O)C2CC2)NC(=O)[C@@H]2C[C@@H](Oc3nccc4ccccc34)CN2C1=O)O[C@H]1CCOC1 [Compound 15, [4-Cyclopropanesulfonylaminocarbonyl-18-(isoquinolin-1-yloxy)-2,15-dioxo-3,16-diaza-tricyclo[14.3.0.0^4,6]nonadec-7-en-14-yl]-carbamic acid tetrahydro-furan-3-yl ester] | – | < 50 |
| CC(C)(C)OC(=O)N[C@H]1CCCCC/C=C\[C@@H]2C[C@@]2(C(=O)O)NC(=O)[C@@H]2C[C@@H](Oc3nccc4ccccc34)CN2C1=O [Compound 1, 14-tert-Butoxycarbonylamino-18-(isoquinolin-1-yloxy)-2,15-dioxo-3,16-diaza-tricyclo[14.3.0.0^4,6]nonadec-7-ene-4-carboxylic acid] | 50 to 500 | – |
| COc1ccc2c(OC3CC4C(=O)NC5(C(=O)NS(=O)(=O)C6CC6)CC5C=CCCCSCC(NC(=O)OC(C)C)C(=O)N4C3)nccc2c1 (stereo not shown) [Compound 74] | – | < 50 |
| CC1(OC(=O)N[C@H]2CCCCC/C=C\[C@@H]3C[C@@]3(C(=O)NS(=O)(=O)C3CC3)NC(=O)[C@@H]3C[C@@H](Oc4nccc5ccccc45)CN3C2=O)CCC1 [Compound 56, [(Z)-(1S,4R,14S,18R)-4-cyclopropanesulfonylaminocarbonyl-18-(isoquinolin-1-yloxy)-2,15-dioxo-3,16-diaza-tricyclo[14.3.0.0^4,6]nonadec-7-en-14-yl]-carbamic acid 1-methyl-cyclobutyl ester] | – | < 50 |
| COc1ccc2c(OC3CC4C(=O)NC5(C(=O)NS(=O)(=O)C6CC6)CC5C=CCOCCCC(NC(=O)NC5CCCC5)C(=O)N4C3)nccc2c1 (stereo not shown) [Compound 33] | – | < 50 |
| COc1ccc2c(OC3CC4C(=O)NC5(C(=O)NS(=O)(=O)C6(C)CC6)CC5C=CCCCSCC(NC(=O)OCC(C)(C)C)C(=O)N4C3)nccc2c1 (stereo not shown) [Compound 42] | – | < 50 |
| COc1ccc2c(OC3CC4C(=O)NC5(C(=O)NS(=O)(=O)C6(C)CC6)CC5C=CCOCCCC(NC(=O)OC(C)(C)C)C(=O)N4C3)nccc2c1 (stereo not shown) [Compound 29] | – | < 50 |
| CCCC1(S(=O)(=O)NC(=O)[C@@]23C[C@H]2/C=C\CCCCC[C@H](NC(=O)OC(C)(C)C)C(=O)N2C[C@H](Oc4nccc5ccccc45)C[C@H]2C(=O)N3)CC1 [Compound 6, [18-(Isoquinolin-1-yloxy)-2,15-dioxo-4-(1-propyl-cyclopropanesulfonylaminocarbonyl)-3,16-diaza-tricyclo[14.3.0.0^4,6]nonadec-7-en-14-yl]-carbamic acid tert-butyl ester] | – | < 50 |
| COc1c(NC2CCCCCC=CC3CC3(C(=O)NS(=O)(=O)C3CC3)NC(=O)C3CC(Oc4nccc5ccccc45)CN3C2=O)c(=O)c1=O (stereo not shown) [Compound 21] | – | < 50 |
| N[C@H]1CCCCC/C=C\[C@@H]2C[C@@]2(C(=O)NS(=O)(=O)C2CC2)NC(=O)[C@@H]2C[C@@H](Oc3nccc4ccccc34)CN2C1=O [Compound 11, Cyclopropanesulfonic acid [14-amino-18-(isoquinolin-1-yloxy)-2,15-dioxo-3,16-diaza-tricyclo[14.3.0.0^4,6]nonadec-7-ene-4-carbonyl]-amide bis hydrochloride] | – | < 50 |
| COc1ccc2c(OC3CC4C(=O)NC5(C(=O)O)CC5C=CCCCCCC(NC(=O)OC(C)(C)C)C(=O)N4C3)nccc2c1 (stereo not shown) [Compound 17A] | < 50 | – |
| CC1(OC(=O)NC2CCCCCC=CC3CC3(C(=O)NS(=O)(=O)C3CC3)NC(=O)C3CC(Oc4nccc5ccccc45)CN3C2=O)CCCC1 (stereo not shown) [Compound 50] | – | < 50 |
| COc1ccc2c(OC3CC4C(=O)NC5(C(=O)NS(=O)(=O)C6(C)CC6)CC5C=CCCCOC(C)C(NC(=O)NC5CCCC5)C(=O)N4C3)nccc2c1 (stereo not shown) [Compound 69] | – | < 50 |
| CCC1(S(=O)(=O)NC(=O)C23CC2C=CCCCOC(C)C(NC(=O)NC2CCCC2)C(=O)N2CC(Oc4nccc5cc(OC)ccc45)CC2C(=O)N3)CC1 (stereo not shown) [Compound 73] | – | < 50 |
| COc1ccc2c(OC3CC4C(=O)NC5(C(=O)NS(=O)(=O)C6(C)CC6)CC5C=CCCCSCC(NC(=O)NC5CCCC5)C(=O)N4C3)nccc2c1 (stereo not shown) [Compound 43] | – | < 50 |
| CC(C)(C)OC(=O)N[C@H]1CCCCC/C=C\[C@@H]2C[C@@]2(C(=O)NS(=O)(=O)C2(Cc3ccccc3)CC2)NC(=O)[C@@H]2C[C@@H](Oc3nccc4ccccc34)CN2C1=O [Compound 5, [4-(1-Benzyl-cyclopropanesulfonylaminocarbonyl)-18-(isoquinolin-1-yloxy)-2,15-dioxo-3,16-diaza-tricyclo[14.3.0.0^4,6]nonadec-7-en-14-yl]-carbamic acid tert-butyl ester] | – | < 50 |
| CC(C)(CCl)OC(=O)NC1CCCCCC=CC2CC2(C(=O)NS(=O)(=O)C2CC2)NC(=O)C2CC(Oc3nccc4ccccc34)CN2C1=O (stereo not shown) [Compound 52] | – | < 50 |
| COc1ccc2c(O[C@@H]3C[C@H]4C(=O)N[C@]5(C(=O)NS(=O)(=O)C6CC6)C[C@H]5/C=C\CCCS(=O)(=O)C[C@H](NC(=O)OC(C)(C)C)C(=O)N4C3)nccc2c1 [Compound 19] | – | < 50 |
| COc1ccc2c(OC3CC4C(=O)NC5(C(=O)NS(=O)(=O)C6CC6)CC5C=CCCCOC(C)C(NC(=O)OC(C)(C)C)C(=O)N4C3)nccc2c1 (stereo not shown) [Compound 62] | – | < 50 |
